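Exposure lasted 48 hours, with cells grown in 96-well plates and compounds tested at five concentrations. GI50: concentration for 50% inhibition of growth. TGI is the concentration that stops growth completely.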
Experiments:
Experiment in all cases: DTP human tumour cell line panel, 48 h
OVCAR-8 ovarian = system: OVCAR-8 ovarian
SNB-78 CNS = system: SNB-78 CNS
HCT-116 colon = system: HCT-116 colon
DMS 273 small cell lung = system: DMS 273 small cell lung
RXF 393 renal = system: RXF 393 renal
NCI/ADR-RES ovarian = system: NCI/ADR-RES ovarian
MCF7 breast = system: MCF7 breast
ACHN renal = system: ACHN renal
NCI-H522 lung = system: NCI-H522 lung
MALME-3M melanoma = system: MALME-3M melanoma

Row | Structure (SMILES) | TGI (OVCAR-8 ovarian) [µM] | TGI (SNB-78 CNS) [µM] | TGI (HCT-116 colon) [µM] | TGI (DMS 273 small cell lung) [µM] | TGI (RXF 393 renal) [µM] | TGI (NCI/ADR-RES ovarian) [µM] | TGI (MCF7 breast) [µM] | TGI (ACHN renal) [µM] | TGI (NCI-H522 lung) [µM] | TGI (MALME-3M melanoma) [µM] | GI50 (SNB-78 CNS) [µM] | GI50 (DMS 273 small cell lung) [µM]
1 | O=S(=O)(O)O | 1830 | 2930 | 914 | 540 | 1500 | 2360 | 1410 | 1550 | 1770 | 2050 | – | –
2 | COc1cc(/C=C/c2ccc(C)cc2)cc(OC)c1OC | 15.9 | 9.81 | 14.2 | 17.6 | – | 4.9 | 45.3 | 35.5 | 5.7 | 10.5 | – | –
3 | COc1ccccc1N=Nc1c(-c2ccccc2)nn(C(=O)CC(=O)Nc2cccc(C)c2)c1-c1ccccc1 | > 100 | > 100 | > 100 | > 100 | > 100 | – | – | > 100 | > 100 | > 100 | – | –
4 | O=c1cccccc1[O-].O=c1cccccc1[O-].O=c1cccccc1[O-].[Eu+3] | 63.8 | > 100 | 76.7 | > 100 | 73.9 | – | – | > 100 | 54.8 | > 100 | 20.1 | 16.9
5 | [N-]=[N+]=NC(c1cn(C2CC(O)C(CO)O2)c(=O)[nH]c1=O)C(Cl)Br (stereo not drawn) | > 100 | > 100 | > 100 | > 100 | > 100 | – | – | > 100 | > 100 | > 100 | – | –
6 | Cc1c(C(=O)C/C(=N/NC(=O)c2ccccc2)C(=O)Nc2ccc(Cl)cc2)[n+](=O)c2ccccc2n1[O-] | > 100 | > 100 | > 100 | > 100 | > 100 | – | – | > 100 | > 100 | > 100 | – | –

Source: PubChem BioAssay (NCI)
